According to PubChem BioAssay AID1963964 (Molecular Pharmacology Branch, DTP, NCI, 2024):
Values belong to the molecule of their own block, whether it stands above or below them.

Test system: 997726-040-R-J2-PDC tumor spheroids, viability
Experiment: Anticancer human tumor 997726-040-R-J2-PDC patient-derived squamous cell lung carcinoma cell line growth inhibition [PI3K]
Conditions: spheroids with HUVEC and MSC; for IC50: curve of first compound; for viability, T/C: stronger effect = lower value
In short: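 We assembled tumor spheroids that included a stromal compartment of HUVEC and MSCs, then exposed them to targeted agents alone and together with PI3K pathway inhibitors. Concentration series descended by half-log from clinically achievable Cmax levels. Viability served as the endpoint.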

[1] = second compound 0.0316 µM, first compound 0.0316 µM
[2] = second compound 0.0316 µM, first compound 0.1 µM
[3] = second compound 0.0316 µM, first compound 0.316 µM
[4] = second compound 0.0316 µM, first compound 1 µM
[5] = second compound 0.0316 µM, first compound 3.16 µM
[6] = second compound 0.0316 µM, first compound 10 µM
[7] = second compound 0.1 µM, first compound 0.0316 µM
[8] = second compound 0.1 µM, first compound 0.1 µM
[9] = second compound 0.1 µM, first compound 0.316 µM
[10] = second compound 0.1 µM, first compound 1 µM
[11] = second compound 0.1 µM, first compound 3.16 µM
[12] = second compound 0.1 µM, first compound 10 µM
[13] = second compound 0.316 µM, first compound 0.0316 µM
[14] = second compound 0.316 µM, first compound 0.1 µM
[15] = second compound 0.316 µM, first compound 0.316 µM
[16] = second compound 0.316 µM, first compound 1 µM
[17] = second compound 0.316 µM, first compound 3.16 µM
[18] = second compound 0.316 µM, first compound 10 µM
[19] = second compound 1 µM, first compound 0.0316 µM
[20] = second compound 1 µM, first compound 0.1 µM
[21] = second compound 1 µM, first compound 0.316 µM
[22] = second compound 1 µM, first compound 1 µM
[23] = second compound 1 µM, first compound 3.16 µM
[24] = second compound 1 µM, first compound 10 µM
[25] = second compound 3.16 µM, first compound 0.0316 µM
[26] = second compound 3.16 µM, first compound 0.1 µM
[27] = second compound 3.16 µM, first compound 0.316 µM
[28] = second compound 3.16 µM, first compound 1 µM
[29] = second compound 3.16 µM, first compound 3.16 µM
[30] = second compound 3.16 µM, first compound 10 µM
[31] = second compound 10 µM, first compound 0.0316 µM
[32] = second compound 10 µM, first compound 0.1 µM
[33] = second compound 10 µM, first compound 0.316 µM
[34] = second compound 10 µM, first compound 1 µM
[35] = second compound 10 µM, first compound 3.16 µM
[36] = second compound 10 µM, first compound 10 µM
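Note: spheroids exposed to compounds for seven days before readout.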

IC50 (second compound 0.0316 µM): > 10 µM
IC50 (second compound 0.1 µM): > 10 µM
IC50 (second compound 0.316 µM): > 10 µM
IC50 (second compound 1 µM): > 10 µM
IC50 (second compound 3.16 µM): > 10 µM
IC50 (second compound 10 µM): < 0.0316 µM
SMILES: C#Cc1c(F)ccc2cc(O)cc(-c3ncc4c(N5CC6CCC(C5)N6)nc(OCC56CCCN5CC(F)C6)nc4c3F)c12 (stereo not given) + CC(Nc1ncnc2nc[nH]c12)c1cc2cccc(Cl)c2c(=O)n1-c1ccccc1
viability, T/C [1]: 90.6%
viability, T/C [2]: 99.3%
viability, T/C [3]: 101%
viability, T/C [4]: 85.7%
viability, T/C [5]: 88.1%
viability, T/C [6]: 96%
viability, T/C [7]: 101%
viability, T/C [8]: 96.5%
viability, T/C [9]: 83.3%
viability, T/C [10]: 97.6%
viability, T/C [11]: 82.1%
viability, T/C [12]: 73.3%
viability, T/C [13]: 97.1%
viability, T/C [14]: 103%
viability, T/C [15]: 98%
viability, T/C [16]: 94%
viability, T/C [17]: 95.7%
viability, T/C [18]: 61.5%
viability, T/C [19]: 87.3%
viability, T/C [20]: 93.8%
viability, T/C [21]: 82.7%
viability, T/C [22]: 84.6%
viability, T/C [23]: 79.9%
viability, T/C [24]: 63.5%
viability, T/C [25]: 71.6%
viability, T/C [26]: 68.3%
viability, T/C [27]: 61.4%
viability, T/C [28]: 72.3%
viability, T/C [29]: 65.3%
viability, T/C [30]: 57.7%
viability, T/C [31]: 49.1%
viability, T/C [32]: 50.1%
viability, T/C [33]: 45.3%
viability, T/C [34]: 45.5%
viability, T/C [35]: 39.1%
viability, T/C [36]: 35.1%

IC50 (second compound 0.0316 µM): > 10 µM
IC50 (second compound 0.1 µM): > 10 µM
IC50 (second compound 0.316 µM): > 10 µM
IC50 (second compound 1 µM): > 10 µM
IC50 (second compound 3.16 µM): > 10 µM
IC50 (second compound 10 µM): > 10 µM
SMILES: C=CC(=O)N1CCN(c2nc(=O)n(-c3c(C)ccnc3C(C)C)c3nc(-c4c(O)cccc4F)c(F)cc23)C(C)C1 (stereo not given) + CC(Nc1ncnc2nc[nH]c12)c1cc2cccc(Cl)c2c(=O)n1-c1ccccc1
viability, T/C [1]: 91.5%
viability, T/C [2]: 112%
viability, T/C [3]: 107%
viability, T/C [4]: 106%
viability, T/C [5]: 123%
viability, T/C [6]: 130%
viability, T/C [7]: 108%
viability, T/C [8]: 103%
viability, T/C [9]: 101%
viability, T/C [10]: 104%
viability, T/C [11]: 113%
viability, T/C [12]: 126%
viability, T/C [13]: 104%
viability, T/C [14]: 95%
viability, T/C [15]: 104%
viability, T/C [16]: 102%
viability, T/C [17]: 133%
viability, T/C [18]: 113%
viability, T/C [19]: 86.7%
viability, T/C [20]: 86.4%
viability, T/C [21]: 92.7%
viability, T/C [22]: 98.4%
viability, T/C [23]: 120%
viability, T/C [24]: 109%
viability, T/C [25]: 72.2%
viability, T/C [26]: 75.4%
viability, T/C [27]: 78.9%
viability, T/C [28]: 85.3%
viability, T/C [29]: 96.2%
viability, T/C [30]: 95.6%
viability, T/C [31]: 58.1%
viability, T/C [32]: 51%
viability, T/C [33]: 60.8%
viability, T/C [34]: 55.8%
viability, T/C [35]: 64.7%
viability, T/C [36]: 68.8%

IC50 (second compound 0.0316 µM): > 10 µM
IC50 (second compound 0.1 µM): > 10 µM
IC50 (second compound 0.316 µM): > 10 µM
IC50 (second compound 1 µM): > 10 µM
IC50 (second compound 3.16 µM): > 10 µM
IC50 (second compound 10 µM): > 10 µM
SMILES: CC(Cn1ccc(-c2ccc(C#N)c(Cl)c2)n1)NC(=O)c1cc(C(C)O)[nH]n1 (stereo not given) + CC(Nc1ncnc2nc[nH]c12)c1cc2cccc(Cl)c2c(=O)n1-c1ccccc1
viability, T/C [1]: 100%
viability, T/C [2]: 88.5%
viability, T/C [3]: 104%
viability, T/C [4]: 109%
viability, T/C [5]: 100%
viability, T/C [6]: 105%
viability, T/C [7]: 108%
viability, T/C [8]: 100%
viability, T/C [9]: 109%
viability, T/C [10]: 96.4%
viability, T/C [11]: 116%
viability, T/C [12]: 108%
viability, T/C [13]: 94.3%
viability, T/C [14]: 92.1%
viability, T/C [15]: 95.1%
viability, T/C [16]: 92.6%
viability, T/C [17]: 101%
viability, T/C [18]: 98.2%
viability, T/C [19]: 93.9%
viability, T/C [20]: 88.4%
viability, T/C [21]: 91.6%
viability, T/C [22]: 87.2%
viability, T/C [23]: 91.5%
viability, T/C [24]: 88.2%
viability, T/C [25]: 78.1%
viability, T/C [26]: 70.5%
viability, T/C [27]: 71.2%
viability, T/C [28]: 68.9%
viability, T/C [29]: 80.9%
viability, T/C [30]: 72.5%
viability, T/C [31]: 51.5%
viability, T/C [32]: 56.2%
viability, T/C [33]: 48.9%
viability, T/C [34]: 53.7%
viability, T/C [35]: 51.5%
viability, T/C [36]: 52.8%

IC50 (second compound 0.0316 µM): 0.112 µM
IC50 (second compound 0.1 µM): 0.118 µM
IC50 (second compound 0.316 µM): 0.113 µM
IC50 (second compound 1 µM): 0.128 µM
IC50 (second compound 3.16 µM): 0.0769 µM
IC50 (second compound 10 µM): 0.0363 µM
SMILES: Cn1ncc(Cl)c1-c1cc(C(=O)NC(CN)Cc2cccc(F)c2)sc1Cl (stereo not given) + CC(Nc1ncnc2nc[nH]c12)c1cc2cccc(Cl)c2c(=O)n1-c1ccccc1
viability, T/C [1]: 79.2%
viability, T/C [2]: 52.6%
viability, T/C [3]: 26.7%
viability, T/C [4]: 16.1%
viability, T/C [5]: 9.99%
viability, T/C [6]: 12.3%
viability, T/C [7]: 71.1%
viability, T/C [8]: 52.8%
viability, T/C [9]: 30.5%
viability, T/C [10]: 14.9%
viability, T/C [11]: 10.7%
viability, T/C [12]: 12.4%
viability, T/C [13]: 78.2%
viability, T/C [14]: 52.8%
viability, T/C [15]: 26.3%
viability, T/C [16]: 16%
viability, T/C [17]: 11.8%
viability, T/C [18]: 13.8%
viability, T/C [19]: 72.7%
viability, T/C [20]: 56.5%
viability, T/C [21]: 26.7%
viability, T/C [22]: 16.8%
viability, T/C [23]: 12.7%
viability, T/C [24]: 12.7%
viability, T/C [25]: 66.1%
viability, T/C [26]: 44.6%
viability, T/C [27]: 27.8%
viability, T/C [28]: 15.2%
viability, T/C [29]: 12.2%
viability, T/C [30]: 12.8%
viability, T/C [31]: 51.5%
viability, T/C [32]: 38.8%
viability, T/C [33]: 21.2%
viability, T/C [34]: 13.3%
viability, T/C [35]: 10%
viability, T/C [36]: 9.74%

IC50 (second compound 0.0316 µM): > 10 µM
IC50 (second compound 0.1 µM): > 10 µM
IC50 (second compound 0.316 µM): > 10 µM
IC50 (second compound 1 µM): > 10 µM
IC50 (second compound 3.16 µM): > 10 µM
IC50 (second compound 10 µM): 0.0708 µM
SMILES: Cn1nccc1Nc1nccc(-c2ccn(C(CO)c3ccc(Cl)c(F)c3)c(=O)c2)n1 (stereo not given) + CC(Nc1ncnc2nc[nH]c12)c1cc2cccc(Cl)c2c(=O)n1-c1ccccc1
viability, T/C [1]: 93.3%
viability, T/C [2]: 81.7%
viability, T/C [3]: 77.2%
viability, T/C [4]: 69.3%
viability, T/C [5]: 64.2%
viability, T/C [6]: 59.5%
viability, T/C [7]: 91.6%
viability, T/C [8]: 90.1%
viability, T/C [9]: 73.9%
viability, T/C [10]: 69.4%
viability, T/C [11]: 62.5%
viability, T/C [12]: 61.8%
viability, T/C [13]: 89.6%
viability, T/C [14]: 93.7%
viability, T/C [15]: 74%
viability, T/C [16]: 57.2%
viability, T/C [17]: 64.3%
viability, T/C [18]: 62.4%
viability, T/C [19]: 96.5%
viability, T/C [20]: 77.6%
viability, T/C [21]: 74.2%
viability, T/C [22]: 67.6%
viability, T/C [23]: 58.8%
viability, T/C [24]: 60.2%
viability, T/C [25]: 73.9%
viability, T/C [26]: 62.7%
viability, T/C [27]: 61.6%
viability, T/C [28]: 55.6%
viability, T/C [29]: 57.8%
viability, T/C [30]: 48.2%
viability, T/C [31]: 56.2%
viability, T/C [32]: 47.6%
viability, T/C [33]: 37.2%
viability, T/C [34]: 43.6%
viability, T/C [35]: 40.4%
viability, T/C [36]: 31.1%
